# Columns and labels:
# [1] = test system: antibodies in sera from SARS patients (sera 1a, 1b, 2, 6, 37, 62, London, SARS-yellow, SARS-green); format: binding, human; set-up: Binding of serum 6 to linear peptides of protein X1 of SARS-CoV Urbani / Binding of serum 37 to linear peptides of protein X1 of SARS-CoV Urbani / Binding of serum 6 to looped/cyclic peptide (PEPSCAN-ELISA) / Binding of serum 37 to looped/cyclic peptide (PEPSCAN-ELISA) / Binding of serum 37 to looped/cyclic peptides of protein X1 of SARS-CoV Urbani / Binding of serum 6 to linear peptides of protein X2 / Binding of serum 37 to linear peptides of protein X2 / Binding of serum 37 to looped/cyclic peptides of protein X2 of SARS-CoV Urbani / Binding of serum 6 to linear peptides of protein M of SARS-CoV Urbani / Binding of serum 37 to linear peptides of protein M of SARS-CoV Urbani / Binding of serum 6 to looped/cyclic peptides of protein M of SARS-CoV Urbani / Binding of serum 37 to looped/cyclic peptides of protein M of SARS-CoV Urbani / Binding of serum 6 to linear peptides of protein X3 of SARS-CoV Urbani / Binding of serum 37 to linear peptides of protein X3 of SARS-CoV Urbani / Binding of serum 37 to looped/cyclic peptides of protein X3 of SARS-CoV Urbani / Binding of serum 6 to linear peptides of protein X4 of SARS-CoV Urbani / Binding of serum 37 to linear peptides of protein X4 of SARS-CoV Urbani / Binding of serum 37 to looped/cyclic peptides of protein X4 of SARS-CoV Urbani / Binding of serum 6 to linear peptides of protein X5 of SARS-CoV Urbani / Binding of serum 37 to linear peptides of protein X5 of SARS-CoV Urbani / Binding of serum 37 to looped/cyclic peptides of protein X5 of SARS-CoV Urbani / Binding of serum 6 to linear peptides of protein N of SARS-CoV Urbani / Binding of serum 37 to linear peptides of protein N of SARS-CoV Urbani / Binding of serum 6 to linear peptide (PEPSCAN-ELISA) / Binding of serum 1a to looped/cyclic peptides of protein N of SARS-CoV Urbani / Binding of serum 1b to looped/cyclic peptides of protein N of SARS-CoV Urbani / Binding of serum 2 to looped/cyclic peptides of protein N of SARS-CoV Urbani / Binding of serum 6 to looped/cyclic peptides of protein N of SARS-CoV Urbani / Binding of serum 37 to looped/cyclic peptides of protein N of SARS-CoV Urbani / Binding of serum 62 to looped/cyclic peptides of protein N of SARS-CoV Urbani / Binding of serum London to looped/cyclic peptides of protein N of SARS-CoV Urbani / Binding of serum SARS-green to looped/cyclic peptides of protein N of SARS-CoV Urbani: unit not given here
# [2] = test system: control sera (pooled serum of ten healthy LUMC hospital workers; commercial negative donor pooled serum from the Dutch bloodbank); format: binding, human; set-up: Binding of Control serum LUMC to linear peptides / Binding of Control serum Blood-bank to linear peptides / Binding of Control serum LUMC to looped peptides / Binding of Control Serum Blood-Bank to Looped peptides / Binding of Control serum LUMC to linear peptides of the protein M of SARS-CoV Urbani / Binding of Control serum Blood-bank to linear peptides of the protein M of SARS-CoV Urbani / Binding of Control serum LUMC to looped peptides of the protein M of SARS-CoV Urbani / Binding of Control Serum Blood-Bank to Looped peptides of the protein M of SARS-CoV Urbani: unit not given here
# [3] = test system: rabbit serum obtained by immunizing a rabbit with the SARS-CoV strain Frankfurt 1; format: binding; set-up: Binding of a rabbit serum to linear peptides / Binding of a rabbit serum to looped peptides / Rabbit serum linear peptides / Rabbit serum looped peptides / Binding of a rabbit serum to linear peptides of protein N of SARS-CoV Urbani (Rabbit serum linear peptides) / Binding of a rabbit serum to looped/cyclic peptides of protein N of SARS-CoV Urbani (Rabbit serum looped peptides): unit not given here
sequence,measurement,setting,value
VKDYVVVHGYFTEVY,Binding of serum 1a to linear peptides of protein X1 of SARS-CoV Urbani,[1],0.7
same,Binding of serum 1a to looped/cyclic peptides of protein X1 of SARS-CoV Urbani,[1],0.5
same,Binding of serum 1b to linear peptides of protein X1 of SARS-CoV Urbani,[1],0.6
same,Binding of serum 1b to looped/cyclic peptides of protein X1 of SARS-CoV Urbani,[1],0.4
same,Binding of serum 2 to linear peptides of protein X1 of SARS-CoV Urbani,[1],0.4
same,Binding of serum 2 to looped/cyclic peptides of protein X1 of SARS-CoV Urbani,[1],0.4
same,Binding of serum 6 to linear peptides of protein X1 of SARS-CoV Urbani,[1],0.4
same,Binding of serum 6 to looped/cyclic peptides of protein X1 of SARS-CoV Urbani,[1],0.2
same,Binding of serum 37 to linear peptides of protein X1 of SARS-CoV Urbani,[1],0.6
same,Binding of serum 37 to looped/cyclic peptides of protein X1 of SARS-CoV Urbani,[1],0.6
same,Binding of serum 62 to linear peptides of protein X1 of SARS-CoV Urbani,[1],0.5
same,Binding of serum 62 to looped/cyclic peptides of protein X1 of SARS-CoV Urbani,[1],0.5
same,Binding of serum London to linear peptides of protein X1 of SARS-CoV Urbani,[1],0.2
same,Binding of serum London to looped/cyclic peptides of protein X1 of SARS-CoV Urbani,[1],0.2
same,Binding of serum SARS-green to linear peptides of protein X1 of SARS-CoV Urbani,[1],0.2
same,Binding of serum SARS-green to looped/cyclic peptides of protein X1 of SARS-CoV Urbani,[1],0.2
same,Binding of serum SARS-yellow to linear peptides of protein X1 of SARS-CoV Urbani,[1],0.4
same,Binding of serum SARS-yellow to looped/cyclic peptides of protein X1 of SARS-CoV Urbani,[1],0.5
same,Binding of Control Serum Blood-Bank to Looped peptides,[2],0.5
same,Binding of Control serum Blood-bank to linear peptides,[2],0.5
same,Binding of Control serum LUMC to linear peptides,[2],0.5
same,Binding of Control serum LUMC to looped peptides,[2],0.6
same,Binding of a rabbit serum to linear peptides,[3],0.1
same,Binding of a rabbit serum to looped peptides,[3],0.6
KMLHSSSLTSLLKTH,Binding of serum 1a to linear peptides of protein X2,[1],0.6
same,Binding of serum 1a to looped/cyclic peptides of protein X2 of SARS-CoV Urbani,[1],0.3
same,Binding of serum 1b to linear peptides of protein X2,[1],0.5
same,Binding of serum 1b to looped/cyclic peptides of protein X2 of SARS-CoV Urbani,[1],0.4
same,Binding of serum 2 to linear peptides of protein X2,[1],0.5
same,Binding of serum 2 to looped/cyclic peptides of protein X2 of SARS-CoV Urbani,[1],0.2
same,Binding of serum 6 to linear peptides of protein X2,[1],0.6
same,Binding of serum 6 to looped/cyclic peptides of protein X2 of SARS-CoV Urbani,[1],0.2
same,Binding of serum 37 to linear peptides of protein X2,[1],0.5
same,Binding of serum 37 to looped/cyclic peptides of protein X2 of SARS-CoV Urbani,[1],0.2
same,Binding of serum 62 to linear peptides of protein X2,[1],0.6
same,Binding of serum 62 to looped/cyclic peptides of protein X2 of SARS-CoV Urbani,[1],0.3
same,Binding of serum London to linear peptides of protein X2,[1],0.9
same,Binding of serum London to looped/cyclic peptides of protein X2 of SARS-CoV Urbani,[1],0.2
same,Binding of serum SARS-green to linear peptides of protein X2,[1],0.6
same,Binding of serum SARS-green to looped/cyclic peptides of protein X2 of SARS-CoV Urbani,[1],0.7
same,Binding of serum SARS-yellow to linear peptides of protein X2,[1],0.4
same,Binding of serum SARS-yellow to looped/cyclic peptides of protein X2 of SARS-CoV Urbani,[1],0.3
same,Binding of Control Serum Blood-Bank to Looped peptides,[2],0.3
same,Binding of Control serum Blood-bank to linear peptides,[2],0.7
same,Binding of Control serum LUMC to linear peptides,[2],0.5
same,Binding of Control serum LUMC to looped peptides,[2],0.4
same,Binding of a rabbit serum to linear peptides,[3],0.2
same,Binding of a rabbit serum to looped peptides,[3],0.2
CWKCKSKNPLLYDAN,Binding of serum 1a to looped/cyclic peptide (PEPSCAN-ELISA),[1],0.7
same,Binding of serum 1b to looped/cyclic peptide (PEPSCAN-ELISA),[1],0.6
same,Binding of serum 2 to looped/cyclic peptide (PEPSCAN-ELISA),[1],0.5
same,Binding of serum 6 to looped/cyclic peptide (PEPSCAN-ELISA),[1],0.4
same,Binding of serum 37 to looped/cyclic peptide (PEPSCAN-ELISA),[1],0.7
same,Binding of serum 62 to looped/cyclic peptide (PEPSCAN-ELISA),[1],0.6
same,Binding of serum London to looped/cyclic peptide (PEPSCAN-ELISA),[1],0.3
same,Binding of serum SARS-green to looped/cyclic peptide (PEPSCAN-ELISA),[1],0.2
same,Binding of serum SARS-yellow to looped/cyclic peptide (PEPSCAN-ELISA),[1],0.6
same,"Recognition of the peptide by sera of SARS-CoV infected individuals, and form (linear, looped/cyclic) in which it is recognized",[1],recognized in linear form
same,Binding of Control Serum Blood-Bank to Looped peptides,[2],0.7
same,Binding of Control serum Blood-bank to linear peptides,[2],0.7
same,Binding of Control serum LUMC to linear peptides,[2],0.8
same,Binding of Control serum LUMC to looped peptides,[2],0.7
same,Binding of a rabbit serum to linear peptides,[3],0.1
same,Binding of a rabbit serum to looped peptides,[3],0.5
